Reference: ChEMBL document CHEMBL1268974, “Synthesis and antitumour activity of glycyrrhetinic acid derivatives” (Bioorg Med Chem, 2010)

Assays:
Type in all cases: functional, cell-based
8505C = assay: Cytotoxicity against human 8505C cells after 96 hrs by SRB assay
A549 = assay: Cytotoxicity against human A549 cells after 96 hrs by SRB assay
[1] = Cytotoxicity against human Lipo cells after 96 hrs by SRB assay
A2780 = assay: Cytotoxicity against human A2780 cells after 96 hrs by SRB assay
DLD-1 = assay: Cytotoxicity against human DLD1 cells after 96 hrs by SRB assay
[2] = Cytotoxicity against human A253 cells after 96 hrs by SRB assay
MCF7 = assay: Cytotoxicity against human MCF7 cells after 96 hrs by SRB assay
[3] = Cytotoxicity against human 518A2 cells after 96 hrs by SRB assay; conditions: 518A2, 96 h
HCT-116 = assay: Cytotoxicity against human HCT116 cells after 96 hrs by SRB assay; conditions: HCT-116, 96 h
SW480 = assay: Cytotoxicity against human SW480 cells after 96 hrs by SRB assay; conditions: SW480, 96 h
A-431 = assay: Cytotoxicity against human A431 cells after 96 hrs by SRB assay; conditions: A-431, 96 h
HT-29 = assay: Cytotoxicity against human HT-29 cells after 96 hrs by SRB assay; conditions: HT-29, 96 h
FaDu = assay: Cytotoxicity against human FADU cells after 96 hrs by SRB assay
HCT-8 = assay: Cytotoxicity against human HCT8 cells after 96 hrs by SRB assay; conditions: HCT-8, 96 h
SW-1736 = assay: Cytotoxicity against human SW1736 cells after 96 hrs by SRB assay

Row | SMILES | IC50 (8505C; Homo sapiens, 8505C, 96 h) | IC50 (A549; Homo sapiens, A549, 96 h) | IC50 ([1]; Homo sapiens, Lipo, 96 h) | IC50 (A2780; Homo sapiens, A2780, 96 h) | IC50 (DLD-1; Homo sapiens, DLD-1, 96 h) | IC50 ([2]; Homo sapiens, A253, 96 h) | also measured
1 | CC(C)OC(=O)[C@@]1(C)CC[C@]2(C)CC[C@]3(C)C(=CC(=O)[C@@H]4[C@@]5(C)CC[C@H](OC(=O)CCN)C(C)(C)[C@@H]5CC[C@]43C)[C@@H]2C1 | 1.96 µM | 1.78 µM | 3.49 µM | 1310 nM | 3.52 µM | 2.68 µM | –
2 | CC(C)OC(=O)[C@@]1(C)CC[C@]2(C)CC[C@]3(C)C(=CC(=O)[C@@H]4[C@@]5(C)CC[C@H](OC(=O)[C@H](C)N)C(C)(C)[C@@H]5CC[C@]43C)[C@@H]2C1 | 3.49 µM | 3.43 µM | 3.53 µM | 2080 nM | 5.54 µM | 3.51 µM | IC50 (MCF7; Homo sapiens, MCF7, 96 h): 3.52 µM; IC50 [3]: 5090 nM; IC50 (HCT-116): 5.03 µM; IC50 (SW480): 3.5 µM; IC50 (A-431): 3490 nM; IC50 (HT-29): 4.6 µM; IC50 (FaDu): 5.39 µM; IC50 (HCT-8): 5130 nM; IC50 (SW-1736; Homo sapiens, SW-1736, 96 h): 3.54 µM
3 | CCOC(=O)[C@@]1(C)CC[C@]2(C)CC[C@]3(C)C(=CC(=O)[C@@H]4[C@@]5(C)CC[C@H](OC(=O)[C@@H](C)N)C(C)(C)[C@@H]5CC[C@]43C)[C@@H]2C1 | 4.43 µM | 4.35 µM | 4.13 µM | 3260 nM | 4.49 µM | 2.55 µM | IC50 (MCF7; Homo sapiens, MCF7, 96 h): 3.55 µM; IC50 [3]: 2760 nM; IC50 (HCT-116): 4.25 µM; IC50 (SW480): 3.32 µM; IC50 (A-431): 2760 nM; IC50 (HT-29): 4.38 µM; IC50 (FaDu): 3.9 µM; IC50 (HCT-8): 2420 nM; IC50 (SW-1736; Homo sapiens, SW-1736, 96 h): 4.11 µM
4 | COC(=O)[C@@]1(C)CC[C@]2(C)CC[C@]3(C)C(=CC(=O)[C@@H]4[C@@]5(C)CC[C@H](OC(=O)CCN)C(C)(C)[C@@H]5CC[C@]43C)[C@@H]2C1 [listing 1 of 2 here] | 2.55 µM | 2.4 µM | 2.52 µM | 1720 nM | 2.51 µM | 2.5 µM | IC50 (MCF7; Homo sapiens, MCF7, 96 h): 2.5 µM; IC50 (SW-1736; Homo sapiens, SW-1736, 96 h): 1.82 µM
5 | CC1(C)[C@@H](OC(=O)CCN)CC[C@]2(C)[C@H]3C(=O)C=C4[C@@H]5C[C@@](C)(C(=O)O)CC[C@]5(C)CC[C@@]4(C)[C@]3(C)CC[C@@H]12 | > 30 µM | > 30 µM | > 30 µM | > 30000 nM | > 30 µM | > 30 µM | –
6 | COC(=O)[C@@]1(C)CC[C@]2(C)CC[C@]3(C)C(=CC(=O)[C@@H]4[C@@]5(C)CC[C@H](OC(=O)CN)C(C)(C)[C@@H]5CC[C@]43C)[C@@H]2C1 [listing 1 of 2 here] | – | – | – | – | – | – | IC50 (MCF7; mcf7): 5.73 µM; IC50 (8505C; 8505c): 5.71 µM; IC50 (A549; a549): 5.54 µM; IC50 ([1]; lipo): 5.92 µM; IC50 (A2780; a2780): 4320 nM; IC50 (SW-1736; sw-1736): 5.62 µM; IC50 (DLD-1; dld-1): 6.42 µM; IC50 ([2]; a253): 5.5 µM
7 | CCOC(=O)[C@@]1(C)CC[C@]2(C)CC[C@]3(C)C(=CC(=O)[C@@H]4[C@@]5(C)CC[C@H](OC(=O)[C@H](C)N)C(C)(C)[C@@H]5CC[C@]43C)[C@@H]2C1 | 3.87 µM | 3.43 µM | 2.74 µM | 2590 nM | 3.72 µM | 2.33 µM | IC50 (MCF7; Homo sapiens, MCF7, 96 h): 3.55 µM; IC50 [3]: 2720 nM; IC50 (HCT-116): 2.82 µM; IC50 (SW480): 2.79 µM; IC50 (A-431): 2270 nM; IC50 (HT-29): 2.5 µM; IC50 (FaDu): 4.25 µM; IC50 (HCT-8): 2210 nM; IC50 (SW-1736; Homo sapiens, SW-1736, 96 h): 2.92 µM
8 | COC(=O)[C@@]1(C)CC[C@]2(C)CC[C@]3(C)C(=CC(=O)[C@@H]4[C@@]5(C)CC[C@H](OC(=O)[C@H](C)N)C(C)(C)[C@@H]5CC[C@]43C)[C@@H]2C1 | – | – | – | – | – | – | IC50 (MCF7; mcf7): 3.89 µM; IC50 (8505C; 8505c): 3.58 µM; IC50 (A549; a549): 3.52 µM; IC50 ([1]; lipo): 3.52 µM; IC50 (A2780; a2780): 2310 nM; IC50 (SW-1736; sw-1736): 3.98 µM; IC50 (DLD-1; dld-1): 3.61 µM; IC50 ([2]; a253): 3.5 µM
9 | COC(=O)[C@@]1(C)CC[C@]2(C)CC[C@]3(C)C(=CC(=O)[C@@H]4[C@@]5(C)CC[C@H](OC(=O)CCN)C(C)(C)[C@@H]5CC[C@]43C)[C@@H]2C1 [listing 2 of 2 here] | – | – | – | – | – | – | IC50 (MCF7; mcf7): 2.43 µM; IC50 (8505C; 8505c): 2.51 µM; IC50 (A549; a549): 1.61 µM; IC50 ([1]; lipo): 3.55 µM; IC50 (A2780; a2780): 1560 nM; IC50 (SW-1736; sw-1736): 2.48 µM; IC50 (DLD-1; dld-1): 3.52 µM; IC50 ([2]; a253): 2.51 µM
10 | CC1(C)[C@@H](OC(=O)CN)CC[C@]2(C)[C@H]3C(=O)C=C4[C@@H]5C[C@@](C)(C(=O)O)CC[C@]5(C)CC[C@@]4(C)[C@]3(C)CC[C@@H]12 | > 30 µM | > 30 µM | > 30 µM | > 30000 nM | > 30 µM | > 30 µM | –
11 | C[C@H](N)C(=O)O[C@H]1CC[C@]2(C)[C@H]3C(=O)C=C4[C@@H]5C[C@@](C)(C(=O)OCc6ccccc6)CC[C@]5(C)CC[C@@]4(C)[C@]3(C)CC[C@H]2C1(C)C | 3.1 µM | 3.51 µM | 3.57 µM | 2850 nM | 5.02 µM | 3.49 µM | –
12 | CCOC(=O)[C@@]1(C)CC[C@]2(C)CC[C@]3(C)C(=CC(=O)[C@@H]4[C@@]5(C)CC[C@H](OC(=O)CCN)C(C)(C)[C@@H]5CC[C@]43C)[C@@H]2C1 | 2.32 µM | 2.18 µM | 2.38 µM | 1770 nM | 2.74 µM | 2.23 µM | –
13 | C[C@H](N)C(=O)O[C@H]1CC[C@]2(C)[C@H]3C(=O)C=C4[C@@H]5C[C@@](C)(C(=O)O)CC[C@]5(C)CC[C@@]4(C)[C@]3(C)CC[C@H]2C1(C)C | > 30 µM | > 30 µM | > 30 µM | > 30000 nM | > 30 µM | > 30 µM | –
14 | CC1(C)[C@@H](OC(=O)CCN)CC[C@]2(C)[C@H]3C(=O)C=C4[C@@H]5C[C@@](C)(C(=O)OCc6ccccc6)CC[C@]5(C)CC[C@@]4(C)[C@]3(C)CC[C@@H]12 | 3.19 µM | 2.76 µM | 3.25 µM | 1730 nM | 4.54 µM | 3.05 µM | –
15 | CC1(C)[C@@H](OC(=O)CN)CC[C@]2(C)[C@H]3C(=O)C=C4[C@@H]5C[C@@](C)(C(=O)OCc6ccccc6)CC[C@]5(C)CC[C@@]4(C)[C@]3(C)CC[C@@H]12 | 4.79 µM | 5.07 µM | 4.81 µM | 3540 nM | 4.54 µM | 5.03 µM | –
16 | CC(C)OC(=O)[C@@]1(C)CC[C@]2(C)CC[C@]3(C)C(=CC(=O)[C@@H]4[C@@]5(C)CC[C@H](OC(=O)CN)C(C)(C)[C@@H]5CC[C@]43C)[C@@H]2C1 | 2.76 µM | 2.65 µM | 2.74 µM | 2240 nM | 2.54 µM | 2.01 µM | –
17 | COC(=O)[C@@]1(C)CC[C@]2(C)CC[C@]3(C)C(=CC(=O)[C@@H]4[C@@]5(C)CC[C@H](OC(=O)CN)C(C)(C)[C@@H]5CC[C@]43C)[C@@H]2C1 [listing 2 of 2 here] | 7.45 µM | 6.42 µM | 7.54 µM | 5990 nM | 8.59 µM | 6.26 µM | IC50 (MCF7; Homo sapiens, MCF7, 96 h): 7.1 µM; IC50 (SW-1736; Homo sapiens, SW-1736, 96 h): 6.33 µM
18 | CCOC(=O)[C@@]1(C)CC[C@]2(C)CC[C@]3(C)C(=CC(=O)[C@@H]4[C@@]5(C)CC[C@H](OC(=O)CN)C(C)(C)[C@@H]5CC[C@]43C)[C@@H]2C1 | 5.32 µM | 5.39 µM | 4.32 µM | 3900 nM | 5.61 µM | 3.59 µM | –
